Assay results reported in PubChem BioAssay AID2060348 (Molecular Pharmacology Branch, DTP, NCI, 2025).

Test system: 885724-159-R-J1-PDC spheroids viability
Assay: Anticancer human tumor 885724-159-R-J1-PDC patient-derived pancreatic adenocarcinoma cell line growth inhibition [TAK]
Details: spheroids with HUVEC and MSC; for IC50: curve of first compound; for viability, T/C: stronger effect = lower value; active means viability on the fitted dose curve at most 10% of control; inactive means the rest
Procedure, shortened: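 Tumor cells were grown as spheroids with HUVEC and hMSC (60:25:15) and treated with targeted agents combined with TAK-243 or ipatasertib. Drugs were tested in half-log steps down from near the clinical Cmax, or from 10 microM where Cmax was unknown.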

[1] = second compound 0.3 µM, first compound 0.0316 µM
[2] = second compound 0.3 µM, first compound 0.1 µM
[3] = second compound 0.3 µM, first compound 0.316 µM
[4] = second compound 0.3 µM, first compound 1 µM
[5] = second compound 0.3 µM, first compound 3.16 µM
[6] = second compound 0.3 µM, first compound 10 µM
[7] = second compound 0.949 µM, first compound 0.0316 µM
[8] = second compound 0.949 µM, first compound 0.1 µM
[9] = second compound 0.949 µM, first compound 0.316 µM
[10] = second compound 0.949 µM, first compound 1 µM
[11] = second compound 0.949 µM, first compound 3.16 µM
[12] = second compound 0.949 µM, first compound 10 µM
[13] = second compound 3 µM, first compound 0.0316 µM
[14] = second compound 3 µM, first compound 0.1 µM
[15] = second compound 3 µM, first compound 0.316 µM
[16] = second compound 3 µM, first compound 1 µM
[17] = second compound 3 µM, first compound 3.16 µM
[18] = second compound 3 µM, first compound 10 µM
[19] = second compound 9.49 µM, first compound 0.0316 µM
[20] = second compound 9.49 µM, first compound 0.1 µM
[21] = second compound 9.49 µM, first compound 0.316 µM
[22] = second compound 9.49 µM, first compound 1 µM
[23] = second compound 9.49 µM, first compound 3.16 µM
[24] = second compound 9.49 µM, first compound 10 µM
[25] = second compound 30 µM, first compound 0.0316 µM
[26] = second compound 30 µM, first compound 0.1 µM
[27] = second compound 30 µM, first compound 0.316 µM
[28] = second compound 30 µM, first compound 1 µM
[29] = second compound 30 µM, first compound 3.16 µM
[30] = second compound 30 µM, first compound 10 µM
[31] = second compound 0.3 µM, first compound 0.000316 µM
[32] = second compound 0.3 µM, first compound 0.001 µM
[33] = second compound 0.3 µM, first compound 0.00316 µM
[34] = second compound 0.3 µM, first compound 0.01 µM
[35] = second compound 0.949 µM, first compound 0.000316 µM
[36] = second compound 0.949 µM, first compound 0.001 µM
[37] = second compound 0.949 µM, first compound 0.00316 µM
[38] = second compound 0.949 µM, first compound 0.01 µM
[39] = second compound 3 µM, first compound 0.000316 µM
[40] = second compound 3 µM, first compound 0.001 µM
[41] = second compound 3 µM, first compound 0.00316 µM
[42] = second compound 3 µM, first compound 0.01 µM
[43] = second compound 9.49 µM, first compound 0.000316 µM
[44] = second compound 9.49 µM, first compound 0.001 µM
[45] = second compound 9.49 µM, first compound 0.00316 µM
[46] = second compound 9.49 µM, first compound 0.01 µM
[47] = second compound 30 µM, first compound 0.000316 µM
[48] = second compound 30 µM, first compound 0.001 µM
[49] = second compound 30 µM, first compound 0.00316 µM
[50] = second compound 30 µM, first compound 0.01 µM
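Further: spheroids exposed to drugs for seven days.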
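Wherever viability, T/C is given: 100% = DMSO vehicle control viability.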

CC(C)(C)c1nc(-c2cccc(NS(=O)(=O)c3c(F)cccc3F)c2F)c(-c2ccnc(N)n2)s1 + CC(C)NCC(C(=O)N1CCN(c2ncnc3c2C(C)CC3O)CC1)c1ccc(Cl)cc1
8870 nM: IC50 (second compound 9.49 µM)
> 10000 nM: IC50 (second compound 0.3 µM) | IC50 (second compound 0.949 µM) | IC50 (second compound 3 µM)
inactive: viability, T/C [1] 85.2% | viability, T/C [2] 101% | viability, T/C [3] 112% | viability, T/C [4] 134% | viability, T/C [5] 134% | viability, T/C [6] 121% | viability, T/C [7] 72.3% | viability, T/C [8] 100% | viability, T/C [9] 111% | viability, T/C [10] 117% | viability, T/C [11] 92.2% | viability, T/C [12] 80.5% | viability, T/C [13] 68.2% | viability, T/C [14] 90.7% | viability, T/C [15] 94% | viability, T/C [16] 96% | viability, T/C [17] 73.4% | viability, T/C [18] 57.6% | viability, T/C [19] 57.1% | viability, T/C [20] 71.3% | viability, T/C [21] 77% | viability, T/C [22] 76.1% | viability, T/C [23] 56.1% | viability, T/C [24] 49.3% | viability, T/C [25] 37.7% | viability, T/C [26] 41.3% | viability, T/C [27] 46.9% | viability, T/C [28] 42.7% | viability, T/C [29] 41.6% | viability, T/C [30] 37.7%
< 31.6 nM: IC50 (second compound 30 µM)

CC(C)CC(NC(=O)CNC(=O)c1cc(Cl)ccc1Cl)B1OC(=O)CC(CC(=O)O)(C(=O)O)O1 (stereo not given) + CC(C)NCC(C(=O)N1CCN(c2ncnc3c2C(C)CC3O)CC1)c1ccc(Cl)cc1
12.1 nM: IC50 (second compound 0.949 µM)
< 0.316 nM: IC50 (second compound 9.49 µM) | IC50 (second compound 30 µM)
active: viability, T/C [2] 1.16% | viability, T/C [7] 8.98% | viability, T/C [8] 1.18% | viability, T/C [14] 0.99% | viability, T/C [19] 9.27% | viability, T/C [20] 1.07% | viability, T/C [26] 0.71%
inactive: viability, T/C [31] 66.6% | viability, T/C [32] 66.3% | viability, T/C [33] 63.6% | viability, T/C [34] 63.3% | viability, T/C [1] 15.4% | viability, T/C [35] 57.5% | viability, T/C [36] 61% | viability, T/C [37] 62.2% | viability, T/C [38] 58.3% | viability, T/C [39] 55.5% | viability, T/C [40] 58.3% | viability, T/C [41] 53.1% | viability, T/C [42] 55.9% | viability, T/C [13] 11.1% | viability, T/C [43] 48.5% | viability, T/C [44] 52.1% | viability, T/C [45] 48.5% | viability, T/C [46] 46.1% | viability, T/C [47] 33.9% | viability, T/C [48] 33.5% | viability, T/C [49] 34.7% | viability, T/C [50] 32.9% | viability, T/C [25] 7.76%
11.6 nM: IC50 (second compound 3 µM)
13.8 nM: IC50 (second compound 0.3 µM)

CC(C)n1nc(-c2ccc3oc(N)nc3c2)c2c(N)ncnc21 + CC(C)NCC(C(=O)N1CCN(c2ncnc3c2C(C)CC3O)CC1)c1ccc(Cl)cc1
6.88 nM: IC50 (second compound 0.949 µM)
< 0.316 nM: IC50 (second compound 9.49 µM) | IC50 (second compound 30 µM)
18.5 nM: IC50 (second compound 0.3 µM)
inactive: viability, T/C [31] 66.2% | viability, T/C [32] 64.1% | viability, T/C [33] 56.8% | viability, T/C [34] 53.9% | viability, T/C [1] 48.6% | viability, T/C [2] 37.1% | viability, T/C [35] 57.2% | viability, T/C [36] 63.5% | viability, T/C [37] 54% | viability, T/C [38] 47.5% | viability, T/C [7] 38.4% | viability, T/C [8] 33.6% | viability, T/C [39] 58.1% | viability, T/C [40] 61.8% | viability, T/C [41] 47.7% | viability, T/C [42] 38.8% | viability, T/C [13] 31.5% | viability, T/C [14] 28.6% | viability, T/C [43] 47.4% | viability, T/C [44] 45.6% | viability, T/C [45] 38.3% | viability, T/C [46] 30.9% | viability, T/C [19] 25.5% | viability, T/C [20] 23% | viability, T/C [47] 32% | viability, T/C [48] 29.5% | viability, T/C [49] 30.2% | viability, T/C [50] 20.5% | viability, T/C [25] 19% | viability, T/C [26] 16.4%
3.15 nM: IC50 (second compound 3 µM)

CCCS(=O)(=O)Nc1ccc(F)c(C(=O)c2c[nH]c3ncc(-c4ccc(Cl)cc4)cc23)c1F + CC(C)NCC(C(=O)N1CCN(c2ncnc3c2C(C)CC3O)CC1)c1ccc(Cl)cc1
25100 nM: IC50 (second compound 3 µM)
> 100000 nM: IC50 (second compound 0.3 µM) | IC50 (second compound 0.949 µM)
< 316 nM: IC50 (second compound 30 µM)
inactive: viability, T/C [3] 79.3% | viability, T/C [4] 93.8% | viability, T/C [5] 104% | viability, T/C [6] 89.7% | viability, T/C (second compound 0.3 µM, first compound 31.6 µM) 99.7% | viability, T/C (second compound 0.3 µM, first compound 100 µM) 105% | viability, T/C [9] 66.1% | viability, T/C [10] 78.4% | viability, T/C [11] 76.2% | viability, T/C [12] 74.2% | viability, T/C (second compound 0.949 µM, first compound 31.6 µM) 34.7% | viability, T/C (second compound 0.949 µM, first compound 100 µM) 76.6% | viability, T/C [15] 66.4% | viability, T/C [16] 71.8% | viability, T/C [17] 67.1% | viability, T/C [18] 63.9% | viability, T/C (second compound 3 µM, first compound 31.6 µM) 34.2% | viability, T/C (second compound 3 µM, first compound 100 µM) 58.8% | viability, T/C [21] 58.5% | viability, T/C [22] 58.4% | viability, T/C [23] 58.6% | viability, T/C [24] 48.9% | viability, T/C (second compound 9.49 µM, first compound 31.6 µM) 13.4% | viability, T/C (second compound 9.49 µM, first compound 100 µM) 47.2% | viability, T/C [27] 37.5% | viability, T/C [28] 40.9% | viability, T/C [29] 36.6% | viability, T/C [30] 12.8% | viability, T/C (second compound 30 µM, first compound 31.6 µM) 3.55% | viability, T/C (second compound 30 µM, first compound 100 µM) 23.1%
8750 nM: IC50 (second compound 9.49 µM)
